From patent US9187465B2, “Oxazole tyrosine kinase inhibitors” (Sareum Limited, priority 2007, dated 2015)
Like-named read-outs stand apart in the source and are kept apart here.

Columns and labels:
[1] = target: T1, human FLT4 (Homo sapiens, UniProt P35916); test: FLT4 kinase assay (DELFIA enzyme inhibition); format: biochemical
T1 construct: a construct expressing the human FLT4 (789-1207) with an amino terminal GST tag; host or cells: Sf9 insect cells (baculovirus)
How it was run: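 Read-out is DELFIA: biotinylated MET Tyr1253-derived peptide captured on Neutravidin, phosphotyrosine detected by Eu-antibody time-resolved fluorescence. Enzyme is Sf9-expressed GST-FLT4 (789-1207), reacting 30 min at room temperature before EDTA stop. IC50 derived from plotted % inhibition.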

[2] = target: T2, human Aurora A (Homo sapiens, UniProt O14965); test: Aurora A kinase assay (DELFIA enzyme inhibition); format: biochemical
T2 construct: Histidine tag (N); host or cells: Sf9 insect cells (baculovirus)
T2 sequence (O14965 1-403): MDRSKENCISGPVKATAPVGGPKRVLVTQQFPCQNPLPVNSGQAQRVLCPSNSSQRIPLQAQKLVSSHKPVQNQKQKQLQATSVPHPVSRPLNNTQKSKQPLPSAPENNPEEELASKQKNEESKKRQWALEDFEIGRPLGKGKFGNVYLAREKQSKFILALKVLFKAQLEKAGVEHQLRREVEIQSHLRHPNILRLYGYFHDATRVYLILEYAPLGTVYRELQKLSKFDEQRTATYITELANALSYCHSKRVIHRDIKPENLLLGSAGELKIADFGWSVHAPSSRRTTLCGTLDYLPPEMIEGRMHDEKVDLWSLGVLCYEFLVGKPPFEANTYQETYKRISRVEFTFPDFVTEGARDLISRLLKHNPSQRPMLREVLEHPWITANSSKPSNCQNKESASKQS
How it was run: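 DELFIA read-out (time-resolved Eu fluorescence, 620 nm emission) after Neutravidin capture of biotinylated peptide substrate and antibody detection. Reaction: Ni-agarose-purified Aurora A, 30 min at room temperature, stopped with 100 mM EDTA.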

T1 sequence (P35916 789-1207): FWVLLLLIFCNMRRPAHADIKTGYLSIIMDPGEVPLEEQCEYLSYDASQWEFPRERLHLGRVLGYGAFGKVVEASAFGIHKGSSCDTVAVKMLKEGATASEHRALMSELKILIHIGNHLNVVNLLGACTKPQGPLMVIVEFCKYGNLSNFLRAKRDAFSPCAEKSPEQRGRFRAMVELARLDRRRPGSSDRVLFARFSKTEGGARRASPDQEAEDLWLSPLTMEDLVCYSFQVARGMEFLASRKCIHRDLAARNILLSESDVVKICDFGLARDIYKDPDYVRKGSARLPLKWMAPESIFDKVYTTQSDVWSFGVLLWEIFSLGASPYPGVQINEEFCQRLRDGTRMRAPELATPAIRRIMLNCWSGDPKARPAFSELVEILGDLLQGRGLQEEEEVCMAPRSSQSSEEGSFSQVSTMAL

Row | IC50 ([1]; read-out: FLT4 IC50) | IC50 ([2]; read-out: Aurora A IC50) | SMILES | IC50 [1] | IC50 [2]
1 | < 10 µM | < 10 µM | NC(=O)c1nc(-c2c(F)cccc2F)oc1Nc1ccc(C(=O)N2CCOCC2)cc1 [Example U-2, 2-(2,6-difluorophenyl)-5-(4-(morpholine-4-carbonyl)phenylamino)oxazole-4-carboxamide] | – | –
2 | < 10 µM | < 10 µM | CNCCNC(=O)c1ccc(Nc2oc(-c3c(F)cccc3F)nc2C(N)=O)cc1 [Example U-3, 5-(4-((2-(methylamino)ethyl)carbamoyl)phenylamino)-2-(2,6-difluorophenyl) oxazole-4-carboxamide] | – | –
3 | < 10 µM | < 10 µM | CNCCCNC(=O)c1ccc(Nc2oc(-c3c(F)cccc3F)nc2C(N)=O)cc1 [Example U-4, 5-(4-((3-(methylamino)propyl)carbamoyl)phenylamino)-2-(2,6-difluorophenyl) oxazole-4-carboxamide] | – | –
4 | < 10 µM | < 10 µM | NC(=O)c1nc(-c2c(F)cccc2F)oc1Nc1ccc(C(=O)N[C@@H]2CCNC2)cc1 [Example U-6, (R)-2-(2,6-difluorophenyl)-5-(4-(pyrrolidin-3-ylcarbamoyl)phenylamino)oxazole-4-carboxamide] | – | –
5 | < 10 µM | < 10 µM | NC(=O)c1nc(-c2c(F)cccc2F)oc1Nc1ccc(C(=O)N[C@H]2CCNC2)cc1 [Example U-7, (S)-2-(2,6-difluorophenyl)-5-(4-(pyrrolidin-3-ylcarbamoyl)phenylamino)oxazole-4-carboxamide] | – | –
6 | < 10 µM | < 10 µM | CN(C)CCNC(=O)c1ccc(Nc2oc(-c3c(F)cccc3F)nc2C(N)=O)cc1 [Example U-8, 5-(4-((2-(dimethylamino)ethyl)carbamoyl)phenylamino)-2-(2,6-difluorophenyl) oxazole-4-carboxamide] | – | –
7 | < 10 µM | < 10 µM | NC(=O)c1nc(-c2c(F)cccc2F)oc1Nc1ccc(C(=O)NCCN2CCOCC2)cc1 [Example U-9, 5-(4-((2-morpholinoethyl)carbamoyl)phenylamino)-2-(2,6-difluorophenyl)oxazole-4-carboxamide] | – | –

The remaining lines, values behind:

Row | SMILES | IC50 ([1]; read-out: FLT4 IC50) | IC50 ([2]; read-out: Aurora A IC50) | IC50 [1] | IC50 [2]
8 | NC(=O)c1nc(-c2c(F)cccc2F)oc1Nc1ccc(C(=O)NC[C@@H]2CCCNC2)cc1 [Example Q-55, (R)-5-(4-((piperidin-3-ylmethyl)carbamoyl)phenylamino)-2-(2,6-difluorophenyl)oxazole-4-carboxamide] | < 10 µM | < 10 µM | – | –
9 | NC(=O)c1nc(-c2cccc3[nH]ncc23)oc1Nc1ccc(N2CCNCC2)cc1 [Example Q-59, 2-(1H-indazol-4-yl)-5-(4-(piperazin-1-yl)phenylamino)oxazole-4-carboxamide] | < 10 µM | < 10 µM | – | –
10 | COc1ccc(Nc2nc(C(N)=O)c(-c3ccc(OC)cc3)o2)cc1 [Example R-4, 5-(4-methoxyphenyl)-2-(4-methoxyphenylamino)oxazole-4-carboxamide] | < 10 µM | < 100 µM | – | –
11 | COc1ccc(-c2oc(Nc3cccc(C)c3)nc2C(N)=O)cc1 [Example R-6, 2-(m-toluidino)-5-(4-methoxyphenyl)oxazole-4-carboxamide] | < 10 µM | < 10 µM | – | –
12 | Cc1ccccc1Nc1nc(C(N)=O)c(-c2ccc(N3CCNCC3)cc2)o1 [Example R-10, 2-(o-toluidino)-5-(4-(piperazin-1-yl)phenyl)oxazole-4-carboxamide] | < 10 µM | < 10 µM | – | –
13 | NC(=O)c1nc(Nc2ccnn2Cc2ccccc2)oc1-c1ccc(N2CCNCC2)cc1 [Example R-18, 2-(1-benzyl-1H-pyrazol-5-ylamino)-5-(4-(piperazin-1-yl)phenyl)oxazole-4-carboxamide] | < 10 µM | < 10 µM | – | –
14 | NC(=O)c1nc(-c2c(F)cccc2F)oc1-c1ccc(OCC2CCNCC2)cc1 [Example S-14, 2-(2,6-difluorophenyl)-5-(4-(piperidin-4-ylmethoxy)phenyl)oxazole-4-carboxamide] | < 10 µM | < 10 µM | – | –
15 | NC(=O)c1nc(-c2c(F)cccc2F)oc1-c1ccc(OCC2CNCCO2)cc1 (stereo not shown) [Example S-15, 2-(2,6-difluorophenyl)-5-(4-(morpholin-2-ylmethoxy)phenyl)oxazole-4-carboxamide] | < 10 µM | < 10 µM | – | –
16 | CCCN(CCO)CCOc1ccc(-c2oc(-c3c(F)cccc3F)nc2C(N)=O)cc1 [Example S-16, 2-(2,6-difluorophenyl)-5-(4-(2-((2-hydroxyethyl)(propyl)amino)ethoxy)phenyl)oxazole-4-carboxamide] | < 10 µM | < 10 µM | – | –
17 | NC(=O)c1nc(-c2c(F)cccc2F)oc1-c1ccc(OCCN2CCCC(O)C2)cc1 (stereo not shown) [Example S-17, 2-(2,6-difluorophenyl)-5-(4-(2-(3-hydroxypiperidin-1-yl)ethoxy)phenyl)oxazole-4-carboxamide] | < 10 µM | < 10 µM | – | –
18 | NC(=O)c1nc(-c2c(F)cccc2F)oc1-c1ccc(OCCN2CCC(CO)CC2)cc1 [Example S-18, 2-(2,6-difluorophenyl)-5-(4-(2-(4-(hydroxymethyl)piperidin-1-yl)ethoxy)phenyl)oxazole-4-carboxamide] | < 10 µM | < 10 µM | – | –
19 | CCN(CCO)CCOc1ccc(-c2oc(-c3c(F)cccc3F)nc2C(N)=O)cc1 [Example S-19, 2-(2,6-difluorophenyl)-5-(4-(2-(ethyl(2-hydroxyethyl)amino)ethoxy)phenyl)oxazole-4-carboxamide] | < 10 µM | < 10 µM | – | –
20 | CNCCOc1ccc(-c2oc(-c3c(F)cccc3F)nc2C(N)=O)cc1 [Example S-20, 2-(2,6-difluorophenyl)-5-(4-(2-(methylamino)ethoxy)phenyl)oxazole-4-carboxamide] | < 10 µM | < 10 µM | – | –
21 | NC(=O)c1nc(-c2c(F)cccc2F)oc1-c1ccc(OCCNCCO)cc1 [Example S-21, 2-(2,6-difluorophenyl)-5-(4-(2-(2-hydroxyethylamino)ethoxy)phenyl)oxazole-4-carboxamide] | < 10 µM | < 10 µM | – | –
22 | NC(=O)c1nc(-c2c(F)cccc2F)oc1Nc1ccc(C(=O)NC2CN3CCC2CC3)cc1 (stereo not shown) [Example U-10, 2-(2,6-difluorophenyl)-5-(4-(quinuclidin-3-ylcarbamoyl)phenylamino)oxazole-4-carboxamide] | – | – | < 10 µM | < 10 µM
23 | CN1C2CCC1CC(NC(=O)c1ccc(Nc3oc(-c4c(F)cccc4F)nc3C(N)=O)cc1)C2 (stereo not shown) [Example U-11, 5-(4-((8-methyl-8-aza-bicyclo[3.2.1]octan-3-yl)carbamoyl)phenylamino)-2-(2,6-difluorophenyl)oxazole-4-carboxamide] | – | – | < 10 µM | < 10 µM
